The results in this text go back to patent US12552753B2, “Methods and compositions for targeting Tregs using CCR8 inhibitors” (Nanjing Immunophage Biomedical Co., Ltd., priority 2020, dated 2026).

Read-outs that look alike come from different tables or passages of the source. A value given as a limit tells only on which side of the number the result lay.

The assay addresses CCR8 (Homo sapiens, UniProt P51685). The assay can be described thus: Tango assay (Tango-CCR8-Gal4-CHO-K1 cells, CCL1-stimulated, ONE-Glo luminescence).
Where [1] appears, read: Tango Assay IC50, Inhibition of CCR8 Tango cell in vitro.
Setting [2] is: read-out: Tango Assay IC50, Inhibition of CCR8 Tango cell in vitro.

Chain of CCR8 (P51685 whole entry, the tested form may be a part): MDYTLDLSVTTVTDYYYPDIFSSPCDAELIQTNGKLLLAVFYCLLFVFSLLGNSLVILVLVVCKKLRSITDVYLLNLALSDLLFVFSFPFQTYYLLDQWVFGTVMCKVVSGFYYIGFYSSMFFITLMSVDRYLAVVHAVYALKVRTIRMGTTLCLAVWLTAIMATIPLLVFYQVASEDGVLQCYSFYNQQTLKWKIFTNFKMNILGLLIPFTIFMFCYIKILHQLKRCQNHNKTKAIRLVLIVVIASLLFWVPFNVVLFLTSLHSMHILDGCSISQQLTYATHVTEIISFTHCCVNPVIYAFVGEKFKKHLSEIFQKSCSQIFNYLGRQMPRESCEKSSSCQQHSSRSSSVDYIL

For the compound `CCCC(=O)N1CCC(CNS(=O)(=O)c2ccc(NC(=O)c3ccccc3C)c3ccccc23)C1` (stereo not shown) [Compound 15, N-(4-(N-((1-butyrylpyrrolidin-3-yl)methyl)sulfamoyl)naphthalen-1-yl)-2-methylbenzamide], under setting [1], the IC50 is more than 10000 nM. With `CCCC(=O)N1CCCC(C(C)NS(=O)(=O)c2ccc(NC(=O)c3ccccc3C)c3ccccc23)C1` (stereo not shown) [Compound 16, N-(4-(N-(1-(1-butyrylpiperidin-3-yl)ethyl)sulfamoyl)naph-thalen-1-yl)-2-methylbenzamide], under setting [2], the IC50 was determined as 500 nM.

As to `Cc1ccccc1C(=O)Nc1ccc(S(=O)(=O)NC(C)C2CCCNC2)c2ccccc12` (stereo not shown) [Compound 17, 2-methyl-N-(4-(N-(1-(piperidin-3-yl)ethyl)sulfamoyl)naph-thalen-1-yl)benzamide], the IC50 under setting [2] worked out at 112 nM. In turn, `Cc1ccccc1C(=O)Nc1ccc(S(=O)(=O)Nc2ccc3c(c2)N(CCN(C)C)C(=O)CO3)c2ccccc12` [Compound 20, N-(4-(N-(4-(2-(dimethylamino)ethyl)-3-oxo-3,4-dihydro-2H-benzo[b][1,4]oxazin-6-yl)sulfamoyl)naphthalen-1-yl)-2-methylbenzamide] had an IC50 under setting [1] of more than 10000 nM. On the same count and under the same terms, for `CN(C)CC(=O)N1CCOc2ccc(NS(=O)(=O)c3ccc4ccccc4c3)cc21` [Compound 22, N-(4-(2-(dimethylamino)acetyl)-3,4-dihydro-2H-benzo[b][1,4]oxazin-6-yl)naphthalene-2-sulfonamide] the value was more than 10000 nM; for `Cc1ccccc1C(=O)Nc1ccc(S(=O)(=O)Nc2ccc3c(c2)N(CCN(C)C)CCO3)c2ccccc12` [Compound 23, N-(4-(N-(4-(2-(dimethylamino)ethyl)-3,4-dihydro-2H-benzo[b][1,4]oxazin-6-yl)sulfamoyl)naphthalen-1-yl)-2-methylbenzamide], more than 10000 nM. Regarding `Cc1ccccc1C(=O)Nc1ccc(S(=O)(=O)NC(C)C2CCCN(C(=O)OC(C)(C)C)C2)c2ccccc12` (stereo not shown) [Compound 24, tert-butyl 3-(1-(4-(2-methylbenzamido)naph-thalene-1-sulfonamido)ethyl)piper-idine-1-carboxylate], the IC50 under setting [1] came out at 930 nM. Still for that read-out and setting: for `Cc1ccccc1C(=O)Nc1ccc(S(=O)(=O)NCc2cccc(N(C)C)c2)c2ccccc12` [Compound 25, N-(4-(N-(3-(dimethylamino)benzyl)sulfamoyl)naphthalen-1-yl)-2-methylbenzamide] the value was 1040 nM; for `Cc1ccccc1C(=O)Nc1ccc(S(=O)(=O)NC(C)c2cccc(N(C)C)c2)c2ccccc12` (stereo not shown) [Compound 26, N-(4-(N-(1-(3-(dimethylamino)phenyl)ethyl)sulfamoyl)naph-thalen-1-yl)-2-methylbenzamide], 83 nM; for `Cc1ccccc1C(=O)Nc1ccc(S(=O)(=O)NC2CCCc3ccccc32)c2ccccc12` (stereo not shown) [Compound 28, 2-methyl-N-(4-(N-(1,2,3,4-tetrahydronaphthalen-1-yl)sulfamoyl)naphtha-len-1-yl)benzamide], 19 nM.

On to `Cc1ccccc1C(=O)Nc1ccc(S(=O)(=O)NC2CCOc3ccccc32)c2ccccc12` (stereo not shown) [Compound 29, N-(4-(N-(chroman-4-yl)sulfamoyl)naphthalen-1-yl)-2-methylbenzamide], for which, under setting [1], the IC50 is 26 nM.

Consider `Cc1ccccc1C(=O)Nc1ccc(S(=O)(=O)NC2CCNc3ccccc32)c2ccccc12` (stereo not shown) [Compound 30, 2-methyl-N-(4-(N-(1,2,3,4-tetrahydroquinolin-4-yl)sulfamoyl)naphthalen-1-yl)benzamide], for which, under setting [1], it took 73 nM to reach half-maximal inhibition (IC50). For `CC(=O)N1CCC(NS(=O)(=O)c2ccc(NC(=O)c3ccccc3C)c3ccccc23)c2ccccc21` (stereo not shown) [Compound 31, N-(4-(N-(1-acetyl-1,2,3,4-tetrahydroquinolin-4-yl)sulfamoyl)naphthalen-1-yl)-2-methylbenzamide], the IC50 under setting [1] came to 1080 nM.

Consider `Cc1ccccc1C(=O)Nc1ccc(S(=O)(=O)NC2CCN(C)c3ccccc32)c2ccccc12` (stereo not shown) [Compound 32, 2-methyl-N-(4-(N-(1-methyl-1,2,3,4-tetrahydroquinolin-4-yl)sulfamoyl)naphthalen-1-yl)benzamide], for which the IC50 under setting [1] was 89 nM. For the compound `Cc1ccccc1C(=O)Nc1ccc(S(=O)(=O)Nc2ccc3c(c2)N(CCN(C)C)CC3)c2ccccc12` [Compound 33, N-(4-(N-(1-(2-(dimethylamino)ethyl)indolin-6-yl)sulfamoyl)naphthalen-1-yl)-2-methylbenzamide], the IC50 under setting [1] was more than 10000 nM. Take `Cc1ccccc1C(=O)Nc1ccc(S(=O)(=O)Nc2ccc3c(c2)CN(CCCN(C)C)C3)c2ccccc12` [Compound 35, N-(4-(N-(2-(3-(dimethylamino)propyl)isoindolin-5-yl)sulfamoyl)naphthalen-1-yl)-2-methylbenzamide]: under setting [1], the half-inhibitory concentration (IC50) was more than 10000 nM. `Cc1ccccc1C(=O)Nc1ccc(S(=O)(=O)Nc2ccc3c(c2)N(C(=O)CN(C)C)CC3)c2ccccc12` [Compound 36, N-(4-(N-(1-(2-(dimethylamino)acetyl)indolin-6-yl)sulfamoyl)naphthalen-1-yl)-2-methylbenzamide] displayed an IC50 under setting [1] of more than 10000 nM. Still for that read-out and setting: for `Cc1ccccc1C(=O)Nc1ccc(S(=O)(=O)Nc2ccc3c(c2)CN(C(=O)CN(C)C)C3)c2ccccc12` [Compound 37, N-(4-(N-(2-(2-(dimethylamino)acetyl)isoindolin-5-yl)sulfamoyl)naphthalen-1-yl)-2-methylbenzamide] the value was more than 10000 nM; for `Cc1ccccc1C(=O)Nc1ccc(S(=O)(=O)N(C)c2ccc3c(c2)N(C(=O)CN(C)C)CC3)c2ccccc12` [Compound 38, N-(4-(N-(1-(2-(dimethylamino)acetyl)indolin-6-yl)-N-methylsulfamoyl)naph-thalen-1-yl)-2-methylbenzamide], 1680 nM.

Take `COc1cc2c(cc1NS(=O)(=O)c1ccc(NC(=O)c3ccccc3C)c3ccccc13)N(C(C)=O)CC2` [Compound 39, N-(4-(N-(1-acetyl-5-methoxyindolin-6-yl)sulfamoyl)naphthalen-1-yl)-2-methylbenzamide]: the half-inhibitory concentration (IC50) under setting [1] is more than 10000 nM. Compound `CC(=O)N1CC(C)(C)c2ccc(NS(=O)(=O)c3ccc(NC(=O)c4ccccc4C)c4ccccc34)cc21` [Compound 40, N-(4-(N-(1-acetyl-3,3-dimethylindolin-6-yl)sulfamoyl)naphthalen-1-yl)-2-methylbenzamide] yielded an IC50 under setting [1] of more than 10000 nM. The same measure, in the same setting: for `Cc1ccccc1C(=O)Nc1ccc(S(=O)(=O)Nc2ccc3c(c2)CN(C(=O)CN(C)C)CC3)c2ccccc12` [Compound 41, N-(4-(N-(2-(2-(dimethylamino)acetyl)-1,2,3,4-tetrahydroisoquinolin-7-yl)sulfamoyl)naphthalen-1-yl)-2-methylbenzamide] the value was more than 10000 nM; for `Cc1ccccc1C(=O)Nc1ccc(S(=O)(=O)Nc2ccc3c(c2)CCN(C(=O)CN(C)C)C3)c2ccccc12` [Compound 42, N-(4-(N-(2-(2-(dimethylamino)acetyl)-1,2,3,4-tetrahydroisoquinolin-6-yl)sulfamoyl)naphthalen-1-yl)-2-methylbenzamide], more than 10000 nM.

Compound `CCCC(=O)NC12CC(NS(=O)(=O)c3ccc(NC(=O)c4ccccc4C)c4ccccc34)(C1)C2` [Compound 43, N-(4-(N-(3-butyramidobicyclo[1.1.1]pentan-1-yl)sulfamoyl)naphthalen-1-yl)-2-methylbenzamide] had an IC50 under setting [1] of more than 10000 nM. For `CN1CCN(C(=O)N2CCC(NS(=O)(=O)c3ccc4[nH]c(-c5ccccc5)nc4c3)CC2)CC1` [Compound 44, N-(1-(4-methylpiperazine-1-carbonyl)piperidin-4-yl)-2-phenyl-1H-m benzo[d]imidazole-5-sulfonamide], the IC50 under setting [1] is more than 10000 nM.

With `Cc1ccccc1C(=O)Nc1ccc(S(=O)(=O)NC2CCC(C(=O)N(C)C)CC2)c2ccccc12` (stereo not shown) [Compound 45, N-(4-(N-(4-(dimethylcarbamoyl)cy-clohexyl)sulfamoyl)naph-thalen-1-yl)-2-methylbenzamide], 2700 nM corresponded to half-maximal inhibition under setting [1] (IC50).

Consider `Cc1ccccc1C(=O)Nc1ccc(S(=O)(=O)NC2CCC(C(=O)N3CCN(C)CC3)CC2)c2ccccc12` (stereo not shown) [Compound 46, 2-methyl-N-(4-(N-(4-(4-methylpiperazine-1-carbonyl)cyclohexyl)sul-famoyl)naphthalen-1-yl)benzamide], for which the IC50 under setting [1] is more than 10000 nM. On the same count and under the same terms, to `Cc1ccccc1C(=O)Nc1ccc(S(=O)(=O)N[C@@H]2CCN3C(=O)CC[C@@H]3C2)c2ccccc12` [Compound 47, 2-methyl-N-(4-(N-((7R,8aR)-3-oxooctahydroindolizin-7-yl)sulfamoyl)naphthalen-1-yl)benzamide] belongs 23 nM; to `Cc1ccccc1C(=O)Nc1ccc(S(=O)(=O)NC(CO)C2CCCCC2)c2ccccc12` (stereo not shown) [Compound 48, N-(4-(N-(1-cyclohexyl-2-hydroxyethyl)sulfamoyl)naphthalen-1-yl)-2-methylbenzamide], 170 nM; to `COC(=O)[C@@H](NS(=O)(=O)c1ccc(NC(=O)c2ccccc2C)c2ccccc12)C1CCCCC1` [Compound 49, (S)-methyl 2-cyclohexyl-2-(4-(2-methylbenzamido)naph-thalene-1-sulfonamido)acetate], 520 nM. Take `COC(=O)[C@H](NS(=O)(=O)c1ccc(NC(=O)c2ccccc2C)c2ccccc12)C1CCCCC1` [Compound 50, (R)-methyl 2-cyclohexyl-2-(4-(2-methylbenzamido)naph-thalene-1-sulfonamido)acetate]: the IC50 under setting [1] amounted to 12 nM. The same measure, in the same setting: to `COc1ccccc1C(C)NS(=O)(=O)c1ccc(NC(=O)c2ccccc2C)c2ccccc12` (stereo not shown) [Compound 51, N-(4-(N-(1-(2-methoxyphenyl)ethyl)sul-famoyl)naphthalen-1-yl)-2-methylbenzamide] belongs more than 10000 nM; to `Cc1ccccc1C(=O)Nc1ccc(S(=O)(=O)NC2CCc3n[nH]cc3C2)c2ccccc12` (stereo not shown) [Compound 52, 2-methyl-N-(4-(N-(4,5,6,7-tetrahydro-2H-indazol-5-yl)sulfamoyl)naphthalen-1-yl)benzamide], more than 10000 nM; to `Cc1ccccc1C(=O)Nc1ccc(S(=O)(=O)NC2CCOc3ccccc32)cc1` (stereo not shown) [Compound 53, N-(4-(N-(chroman-4-yl)sulfamoyl)phenyl)-2-methylbenzamide], more than 10000 nM.

A word on the IC50: it is the concentration that inhibits the measured activity by half.
